The values below are quoted from earlier work in patent publication US6815424B2, “Intranasal administration of polypeptides in powdered form” (Pfizer Corporation, priority 1987, dated 2004).

Molecules are shown by their SMILES.

The conditions of the series: in vivo, inhaled or intranasal.

In the case of `CC(C)C[C@H](NC(=O)[C@@H](Cc1ccc2ccccc2c1)NC(=O)[C@H](Cc1ccc(O)cc1)NC(=O)[C@H](CO)NC(=O)[C@H](Cc1c[nH]c2ccccc12)NC(=O)[C@H](Cc1c[nH]cn1)NC(=O)[C@@H]1CCC(=O)N1)C(=O)N[C@@H](CCCNC(=N)N)C(=O)N1CCC[C@H]1C(=O)NCC(N)=O` [nafarelin acetate, L-pyroglutamyl-L-histidyl-L-tryptophyl-L-seryl-L-tyrosyl-D-3-(2-naphthyl)alanyl-L-leucyl-L-arginyl-L-prolyl-glycinamide], the “bioavailability compared to injection” value is on record as “about 2%”.
